ChEMBL document CHEMBL1201862, “PubChem BioAssay data set” (2004)
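48-hour exposure; five concentrations; linearly interpolated endpoints. GI50: concentration for 50% inhibition of growth.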 Activity calls are given as the source filed them. No stated cut-off is given here; in the data, active = GI50 up to about 1.1 µM and inactive = higher.

Key:
Test in all cases: DTP human tumour cell line panel, 48 h
NCI-H460 = test system: NCI-H460
HCC 2998 = test system: HCC 2998
COLO 205 = test system: COLO 205
HT-29 = test system: HT-29
SW-620 = test system: SW-620
K562 = test system: K562
SK-OV-3 = test system: SK-OV-3
M14 = test system: M14
TK-10 = test system: TK-10
A549 = test system: A549
SK-MEL-28 = test system: SK-MEL-28
HOP-62 = test system: HOP-62
NCI-H226 = test system: NCI-H226
LOX IMVI = test system: LOX IMVI
OVCAR-4 = test system: OVCAR-4
DU-145 = test system: DU-145
SNB-75 = test system: SNB-75
MDA-MB-435 = test system: MDA-MB-435
OVCAR-5 = test system: OVCAR-5
MOLT-4 = test system: MOLT-4
786-0 = test system: 786-0
RPMI-8226 = test system: RPMI-8226
UO-31 = test system: UO-31
CCRF-CEM = test system: CCRF-CEM
MCF7 = test system: MCF7
HCT-116 = test system: HCT-116
IGROV-1 = test system: IGROV-1
T47D = test system: T47D
SK-MEL-2 = test system: SK-MEL-2
UACC-62 = test system: UACC-62
Hs-578T = test system: Hs-578T
HOP-92 = test system: HOP-92
SNB-19 = test system: SNB-19
MDA-MB-231 = test system: MDA-MB-231
U-251 = test system: U-251
CAKI-1 = test system: CAKI-1
UACC-257 = test system: UACC-257
SF-295 = test system: SF-295
BT-549 = test system: BT-549
HL-60 = test system: HL-60
RXF 393 = test system: RXF 393
KM12 = test system: KM12
SN12C = test system: SN12C
PC-3 = test system: PC-3
SF-268 = test system: SF-268
Malme-3M = test system: Malme-3M
NCI/ADR-RES = test system: NCI/ADR-RES
SK-MEL-5 = test system: SK-MEL-5
MDA-N = test system: MDA-N
SF-539 = test system: SF-539
OVCAR-8 = test system: OVCAR-8
OVCAR-3 = test system: OVCAR-3
NCI-H23 = test system: NCI-H23
NCI-H522 = test system: NCI-H522
ACHN = test system: ACHN
HCT-15 = test system: HCT-15
A498 = test system: A498
EKVX = test system: EKVX
SR = test system: SR

In the case of `O=C(CSc1nc2ccc([N+](=O)[O-])cc2s1)c1ccc2ccccc2c1`, the GI50 (NCI-H460) is reported as > 100 µM (inactive), the GI50 (HCC 2998) is reported as > 100 µM (inactive) and the GI50 (COLO 205) is reported as > 100 µM (inactive). For the same molecule, the GI50 (HT-29) was > 100 µM (inactive), the GI50 (SW-620) was > 100 µM (inactive) and the GI50 (K562) was 84.9 µM (inactive). For the same molecule, the GI50 (SK-OV-3) was > 100 µM (inactive), the GI50 (M14) was > 100 µM (inactive) and the GI50 (TK-10) was 54.2 µM (inactive). The GI50 (A549) was > 100 µM (inactive), the GI50 (SK-MEL-28) was > 100 µM (inactive) and the GI50 (HOP-62) was > 100 µM (inactive). For the same molecule, the GI50 (NCI-H226) was > 100 µM (inactive), the GI50 (LOX IMVI) was > 100 µM (inactive) and the GI50 (OVCAR-4) was 41.2 µM (inactive). For the same molecule, the GI50 (DU-145) was > 100 µM (inactive), the GI50 (SNB-75) was > 100 µM (inactive) and the GI50 (MDA-MB-435) was > 100 µM (inactive). The GI50 (OVCAR-5) was > 100 µM (inactive), the GI50 (MOLT-4) was 74.6 µM (inactive) and the GI50 (786-0) was 34 µM (inactive). The GI50 (RPMI-8226) was > 100 µM (inactive), the GI50 (UO-31) was > 100 µM (inactive) and the GI50 (CCRF-CEM) was 84.5 µM (inactive). For the same molecule, the GI50 (MCF7) was > 100 µM (inactive), the GI50 (HCT-116) was > 100 µM (inactive) and the GI50 (IGROV-1) was > 100 µM (inactive). For the same molecule, the GI50 (T47D) was > 100 µM (inactive), the GI50 (SK-MEL-2) was > 100 µM (inactive) and the GI50 (UACC-62) was > 100 µM (inactive). The GI50 (Hs-578T) was 89.5 µM (inactive), the GI50 (HOP-92) was 57.7 µM (inactive) and the GI50 (SNB-19) was 50.2 µM (inactive). For the same molecule, the GI50 (MDA-MB-231) was > 100 µM (inactive), the GI50 (U-251) was > 100 µM (inactive) and the GI50 (CAKI-1) was > 100 µM (inactive). For the same molecule, the GI50 (UACC-257) was > 100 µM (inactive), the GI50 (SF-295) was 93.1 µM (inactive) and the GI50 (BT-549) was > 100 µM (inactive). The GI50 (HL-60) was > 100 µM (inactive), the GI50 (RXF 393) was > 100 µM (inactive) and the GI50 (KM12) was > 100 µM (inactive). For the same molecule, the GI50 (SN12C) was > 100 µM (inactive), the GI50 (PC-3) was 88.1 µM (inactive) and the GI50 (SF-268) was > 100 µM (inactive). The GI50 (Malme-3M) was > 100 µM (inactive), the GI50 (NCI/ADR-RES) was > 100 µM (inactive) and the GI50 (SK-MEL-5) was > 100 µM (inactive). For the same molecule, the GI50 (MDA-N) was > 100 µM (inactive), the GI50 (SF-539) was 62.2 µM (inactive) and the GI50 (OVCAR-8) was 37.4 µM (inactive). The GI50 (OVCAR-3) was > 100 µM (inactive), the GI50 (NCI-H23) was 33 µM (inactive) and the GI50 (NCI-H522) was > 100 µM (inactive). The GI50 (ACHN) was > 100 µM (inactive), the GI50 (HCT-15) was over 100 µM and the GI50 (A498) was > 100 µM (inactive). The GI50 (EKVX) was > 100 µM (inactive).

In the case of `N#CCC(=O)Nn1c(CC#N)nnc1Cc1ccccc1`, the GI50 (NCI-H460) is reported as > 100 µM (inactive), the GI50 (HCC 2998) is reported as > 100 µM (inactive) and the GI50 (HT-29) is reported as > 100 µM (inactive). The GI50 (SW-620) was > 100 µM (inactive), the GI50 (K562) was > 100 µM (inactive) and the GI50 (M14) was > 100 µM (inactive). For the same molecule, the GI50 (TK-10) was > 100 µM (inactive), the GI50 (A549) was > 100 µM (inactive) and the GI50 (SK-MEL-28) was > 100 µM (inactive). The GI50 (HOP-62) was > 100 µM (inactive), the GI50 (NCI-H226) was > 100 µM (inactive) and the GI50 (SR) was > 100 µM (inactive). The GI50 (DU-145) was > 100 µM (inactive), the GI50 (SNB-75) was > 100 µM (inactive) and the GI50 (MDA-MB-435) was > 100 µM (inactive). The GI50 (OVCAR-5) was > 100 µM (inactive), the GI50 (MOLT-4) was > 100 µM (inactive) and the GI50 (786-0) was > 100 µM (inactive). For the same molecule, the GI50 (RPMI-8226) was > 100 µM (inactive), the GI50 (UO-31) was > 100 µM (inactive) and the GI50 (MCF7) was > 100 µM (inactive). The GI50 (HCT-116) was > 100 µM (inactive), the GI50 (IGROV-1) was > 100 µM (inactive) and the GI50 (T47D) was > 100 µM (inactive). For the same molecule, the GI50 (SK-MEL-2) was > 100 µM (inactive), the GI50 (UACC-62) was > 100 µM (inactive) and the GI50 (Hs-578T) was > 100 µM (inactive). The GI50 (HOP-92) was > 100 µM (inactive), the GI50 (SNB-19) was > 100 µM (inactive) and the GI50 (MDA-MB-231) was > 100 µM (inactive). The GI50 (U-251) was > 100 µM (inactive), the GI50 (CAKI-1) was > 100 µM (inactive) and the GI50 (UACC-257) was > 100 µM (inactive). For the same molecule, the GI50 (SF-295) was > 100 µM (inactive), the GI50 (BT-549) was > 100 µM (inactive) and the GI50 (HL-60) was > 100 µM (inactive). The GI50 (RXF 393) was > 100 µM (inactive), the GI50 (KM12) was > 100 µM (inactive) and the GI50 (SN12C) was > 10 µM (inactive). The GI50 (PC-3) was > 100 µM (inactive), the GI50 (SF-268) was > 100 µM (inactive) and the GI50 (Malme-3M) was > 100 µM (inactive). For the same molecule, the GI50 (NCI/ADR-RES) was > 100 µM (inactive), the GI50 (SK-MEL-5) was > 100 µM (inactive) and the GI50 (MDA-N) was > 100 µM (inactive). For the same molecule, the GI50 (SF-539) was > 100 µM (inactive), the GI50 (OVCAR-8) was > 100 µM (inactive) and the GI50 (OVCAR-3) was > 100 µM (inactive). For the same molecule, the GI50 (NCI-H23) was > 100 µM (inactive), the GI50 (NCI-H522) was > 100 µM (inactive) and the GI50 (ACHN) was > 100 µM (inactive). The GI50 (HCT-15) was over 100 µM.
